Measured values from ChEMBL document CHEMBL3813672, “Discovery of anti-cancer activity for benzo[1,2,4]triazin-7-ones: Very strong correlation to pleurotin and thioredoxin reductase inhibition” (Bioorg Med Chem, 2016).

Assays:
Format in all cases: functional
[1] = Growth inhibition of human IGROV1 cells incubated for 48 hrs by sulforhodamine B assay; settings: IGROV-1, 48 h
NCI-H522 = experiment: Growth inhibition of human NCI-H522 cells incubated for 48 hrs by sulforhodamine B assay; settings: NCI-H522, 48 h
M14 = experiment: Growth inhibition of human M14 cells incubated for 48 hrs by sulforhodamine B assay; settings: M14, 48 h
MCF7 = experiment: Growth inhibition of human MCF7 cells incubated for 48 hrs by sulforhodamine B assay; settings: MCF7, 48 h
KM12 = experiment: Growth inhibition of human KM12 cells incubated for 48 hrs by sulforhodamine B assay; settings: KM12, 48 h
A549 = experiment: Growth inhibition of human A549/ATCC cells incubated for 48 hrs by sulforhodamine B assay; settings: A549, 48 h
[2] = Growth inhibition of human HOP92 cells incubated for 48 hrs by sulforhodamine B assay; settings: HOP-92, 48 h
[3] = Growth inhibition of human RXF393 cells incubated for 48 hrs by sulforhodamine B assay; settings: RXF 393, 48 h
[4] = Growth inhibition of human MOLT4 cells incubated for 48 hrs by sulforhodamine B assay; settings: MOLT-4, 48 h
[5] = Growth inhibition of human SKOV3 cells incubated for 48 hrs by sulforhodamine B assay; settings: SK-OV-3, 48 h
[6] = Growth inhibition of human SF295 cells incubated for 48 hrs by sulforhodamine B assay; settings: SF-295, 48 h
Malme-3M = experiment: Growth inhibition of human MALME-3M cells incubated for 48 hrs by sulforhodamine B assay
[7] = Growth inhibition of human SF539 cells incubated for 48 hrs by sulforhodamine B assay; settings: SF-539, 48 h
[8] = Growth inhibition of human OVCAR5 cells incubated for 48 hrs by sulforhodamine B assay; settings: OVCAR-5, 48 h
[9] = Growth inhibition of human TK10 cells incubated for 48 hrs by sulforhodamine B assay; settings: TK-10, 48 h
[10] = Growth inhibition of human PC3 cells incubated for 48 hrs by sulforhodamine B assay; settings: PC-3, 48 h
NCI-H460 = experiment: Growth inhibition of human NCI-H460 cells incubated for 48 hrs by sulforhodamine B assay; settings: NCI-H460, 48 h
CCRF-CEM = experiment: Growth inhibition of human CCRF-CEM cells incubated for 48 hrs by sulforhodamine B assay
SK-MEL-5 = experiment: Growth inhibition of human SK-MEL-5 cells incubated for 48 hrs by sulforhodamine B assay; settings: SK-MEL-5, 48 h
[11] = Growth inhibition of human HCT15 cells incubated for 48 hrs by sulforhodamine B assay; settings: HCT-15, 48 h
[12] = Growth inhibition of human HCC2998 cells incubated for 48 hrs by sulforhodamine B assay; settings: HCC 2998, 48 h
[13] = Growth inhibition of human OVCAR4 cells incubated for 48 hrs by sulforhodamine B assay; settings: OVCAR-4, 48 h
[14] = Growth inhibition of human OVCAR3 cells incubated for 48 hrs by sulforhodamine B assay; settings: OVCAR-3, 48 h
[15] = Growth inhibition of human HOP62 cells incubated for 48 hrs by sulforhodamine B assay; settings: HOP-62, 48 h
[16] = Growth inhibition of human SF268 cells incubated for 48 hrs by sulforhodamine B assay; settings: SF-268, 48 h
[17] = read-out: pLC50 (the source's name) (converted)

For `O=c1ccc2nc(C(F)(F)F)nn(-c3ccccc3)c-2c1`, the GI50 [1] was 12 µM, the CC50 [1, 17] was 55 µM and the TGI ([1]; read-out: pTGI (converted)) was 25.7 µM. For the same molecule, the GI50 (NCI-H522) was 1.51 µM, the CC50 (NCI-H522; [17]) was 6.03 µM and the TGI (NCI-H522; read-out: pTGI (converted)) was 3.02 µM. For the same molecule, the GI50 (M14) was 5.75 µM, the CC50 (M14; [17]) was 45.7 µM and the TGI (M14; read-out: pTGI (converted)) was 19.1 µM. The GI50 (MCF7) was 0.49 µM, the CC50 (MCF7; [17]) was over 100 µM and the TGI (MCF7; read-out: pTGI (converted)) was 4.07 µM. The GI50 (KM12) was 19.5 µM, the CC50 (KM12; [17]) was 70.8 µM and the TGI (KM12; read-out: pTGI (converted)) was 37.2 µM. For the same molecule, the GI50 (A549) was 19.5 µM, the CC50 (A549; [17]) was 79.4 µM and the TGI (A549; read-out: pTGI (converted)) was 38.9 µM. It also gave a GI50 [2] of 1.38 µM, a CC50 [2, 17] of 6.17 µM and a TGI ([2]; read-out: pTGI (converted)) of 2.95 µM. The GI50 [3] was 1.45 µM, the CC50 [3, 17] was 5.37 µM and the TGI ([3]; read-out: pTGI (converted)) was 2.82 µM. For the same molecule, the GI50 [4] was 2.14 µM, the CC50 [4, 17] was over 100 µM and the TGI ([4]; read-out: pTGI (converted)) was 9.12 µM. For the same molecule, the GI50 [5] was 15.1 µM, the CC50 [5, 17] was over 100 µM and the TGI ([5]; read-out: pTGI) was over 100 µM. For the same molecule, the GI50 [6] was 22.9 µM, the CC50 [6, 17] was over 100 µM and the TGI ([6]; read-out: pTGI (converted)) was 67.6 µM. For the same molecule, the GI50 (Malme-3M) was 1.82 µM, the CC50 (Malme-3M; [17]) was 6.03 µM and the TGI (Malme-3M; read-out: pTGI (converted)) was 3.31 µM. It also gave a GI50 [7] of 15.8 µM, a CC50 [7, 17] of 55 µM and a TGI ([7]; read-out: pTGI (converted)) of 29.5 µM. It also gave a GI50 [8] of 15.5 µM, a CC50 [8, 17] of 55 µM and a TGI ([8]; read-out: pTGI (converted)) of 28.8 µM. It also gave a GI50 [9] of 1.62 µM, a CC50 [9, 17] of 5.89 µM and a TGI ([9]; read-out: pTGI (converted)) of 3.09 µM. For the same molecule, the GI50 [10] was 10.7 µM, the CC50 [10, 17] was 52.5 µM and the TGI ([10]; read-out: pTGI (converted)) was 23.4 µM. The GI50 (NCI-H460) was 17.8 µM, the CC50 (NCI-H460; [17]) was 74.1 µM and the TGI (NCI-H460; read-out: pTGI (converted)) was 36.3 µM. For the same molecule, the GI50 (CCRF-CEM) was 2.34 µM, the CC50 (CCRF-CEM; [17]) was over 100 µM and the GI50 (SK-MEL-5) was 7.76 µM. The CC50 (SK-MEL-5; [17]) was 47.9 µM, the TGI (SK-MEL-5; read-out: pTGI (converted)) was 20.9 µM and the GI50 [11] was 2.29 µM. For the same molecule, the CC50 [11, 17] was 8.13 µM, the TGI ([11]; read-out: pTGI (converted)) was 3.39 µM and the GI50 [12] was 15.5 µM. It also gave a CC50 [12, 17] of 57.5 µM, a TGI ([12]; read-out: pTGI (converted)) of 29.5 µM and a GI50 [13] of 1.48 µM. The CC50 [13, 17] was 5.37 µM, the TGI ([13]; read-out: pTGI (converted)) was 2.82 µM and the GI50 [14] was 1.58 µM. For the same molecule, the CC50 [14, 17] was 5.5 µM, the TGI ([14]; read-out: pTGI (converted)) was 2.95 µM and the GI50 [15] was 7.94 µM. The CC50 [15, 17] was 83.2 µM, the TGI ([15]; read-out: pTGI (converted)) was 27.5 µM and the GI50 [16] was 15.1 µM. For the same molecule, the CC50 [16, 17] was 56.2 µM and the TGI ([16]; read-out: pTGI (converted)) was 28.8 µM.
